Experimental data published in patent US6949522B2, “β-2′- or 3′-halonucleosides” (Pharmasset, Inc., priority 2001, dated 2005).
Read-outs that look alike come from different tables or passages of the source.

Legend:
[1] = tested on: human PBM cells; test: Toxicity assay (MTS/MTT dye), human PBM cells; conditions: read-out: Cytotoxicity PBM IC50; human PBM cells, 5 days incubation
Description: (§1) After a three day-incubation for HepG2, or 5 days for human PBM cells, cell viability and mitochondrial activity were measured in a colorimetric assay using the MTS- or MTT dye method (Promega, Madison, Wis.).

[2] = tested on: human PBM cells; test: in vitro; type: cell-based
Description: The compounds were evaluated for their potential toxic effects on uninfected PHA-stimulated human PBM cells, in CEM (T-lymphoblastoid cell line obtained from American Type Culture Collection, Rockville, Md.) and Vero (African green monkey kidney) cells. PBM cells were obtained from whole blood of healthy seronegative donors (HIV-1 and hepatitis B virus) by single-step Ficoll-Hypaque discontinous gradient centrifugation. […] All of the cells were plated in 96-well cell culture plates containing ten-fold serial dilutions of the test drug. […] At the end of incubation, MTT tetrazolium dye solution (Cell titer 96®, Promega, Madison, Wis.) was added to each well and incubated overnight. The reaction was stopped with stop solubilization solution (Promega, Madison, Wis.). The plates were incubated for 5 hours to ensure that the formazan crystals were dissolved. The plates were read at a wavelength of 570 nm using an ELISA plate reader (Bio-tek instruments, Inc., Winooski, Vt., Model # EL 312e). […] Bookmark not defined.

[3] = tested on: CEM (T-lymphoblastoid cell line); type: cell-based
Description: (§2) The compounds were evaluated for their potential toxic effects on uninfected PHA-stimulated human PBM cells, in CEM (T-lymphoblastoid cell line obtained from American Type Culture Collection, Rockville, Md.) and Vero (African green monkey kidney) cells. PBM cells were obtained from whole blood of healthy seronegative donors (HIV-1 and hepatitis B virus) by single-step Ficoll-Hypaque discontinous gradient centrifugation. Log phase Vero, CEM and PHA-stimulated human PBM cells were seeded at a density of 5×10^3, 2.5×10^3 and 5×10^4 cells/well respectively. All of the cells were plated in 96-well cell culture plates containing ten-fold serial dilutions of the test drug. The cultures were incubated for 3, 4 and 5 days for Vero, CEM, and PBM cells, respectively in a humidified 5% CO2-air at 37° C. At the end of incubation, MTT tetrazolium dye solution (Cell titer 96®, Promega, Madison, Wis.) was added to each well and incubated overnight. The reaction was stopped with stop solubilization solution (Promega, Madison, Wis.). The plates were incubated for 5 hours to ensure that the formazan crystals were dissolved. The plates were read at a wavelength of 570 nm using an ELISA plate reader (Bio-tek instruments, Inc., Winooski, Vt., Model # EL 312e). […] Bookmark not defined.

[4] = tested on: Vero (African green monkey kidney) cells; test: in vitro; type: cell-based
Description: as §2

[5] = Toxicity assay (MTS/MTT dye), human PBM cells; conditions: human
Description: as §1

[6] = Toxicity assay (MTS/MTT dye), HepG2 cells; conditions: human
Description: as §1

[7] = tested on: HIV-1xxBRU; test: Antiviral activity in human PBM cells, HIV-1xxBRU; type: cell-based; conditions: read-out: xxBRU (EC90)
Text: (§3) Human peripheral blood mononuclear (PBM) cells (obtained from Atlanta Red Cross) were isolated by Ficoll-Hypaque discontinuous gradient centrifugation from healthy seronegative donors. Cells were stimulated with phytohemagglutinin A (Difco, Sparks, Md.) for 2-3 days prior to use. HIV-1LAI obtained from the Centers for Disease Control and Prevention (Atlanta, Ga.) was used as the standard reference virus for the antiviral assays. The molecular infetious clones HIV-1xxBru and HIV-1M184Vpin were obtained from Dr. John Mellors (University of Pittsburgh). Infections were done in bulk for one hour, either with 100 TCID50/1×10^7 cells for a flask (T25) assay or with 200 TCID50/6×10^5 cells/well for a 24 well plate assay. Cells were added to a plate or flask containing a ten-fold serial dilution of the test compound. Assay medium was RPMI-1640 supplemented with heat inactivated 16% fetal bovine serum, 1.6 mM L-glutamine, 80 IU/ml penicillin, 80 μg/ml streptomycin, 0.0008% DEAE-Dextran, 0.045% sodium bicarbonate, and 26 IU/ml recombinant interleukin-2 (Chiron Corp, Emeryville, Calif.). […] Untreated and uninfected PBM cells were grown in parallel at equivalent cell concentrations as controls. The cell cultures were maintained in a humidified 5% CO2-air at 37° C. for 5 days and supernatants were collected for reverse transcriptase (RT) activity.
Supernatants were centrifuged at 12,000 rpm for 2 hours to pellet the virus. The pellet was solubilized with vortexing in 100 μl virus solubilization buffer (VSB) containing 0.5% Triton X-100, 0.8 M NaCl, 0.5 mM phenylmethylsulfonyl fluoride, 20% glycerol, and 0.05 M Tris, pH 7.8. Ten μL of each sample were added to 75 μL RT reaction mixture (0.06 M Tris, pH 7.8, 0.012 M MgCl2, 0.006 M dithiothreitol, 0.006 mg/ml poly (rA)n, oligo (dT)12-18, 96 μg/ml dATP, and 1 μM of 0.08 mCi/ml ^3H-thymidine triphosphate (Moravek Biochemicals, Brea, Calif.) and incubated at 37° C. for 2 hours. The reaction was stopped by the addition of 100 μL 10% trichloroacetic acid containing 0.05% sodium pyrophosphate. The acid insoluble product was harvested onto filter paper using a Packard Harvester (Meriden, Conn.), and the RT activity was read on a Packard Direct Beta Counter (Meriden, Conn.). The RT results were expressed in counts per minute (CPM) per milliliter. […]

[8] = tested on: HIV-1M184V; test: Antiviral activity against lamivudine-resistant (HIV-1M184V) mutant strain in human PBM cells; type: cell-based; conditions: for EC90: read-out: M184V (EC90)
Text: as §3
Supernatants were centrifuged at 12,000 rpm for 2 hours to pellet the virus. The pellet was solubilized with vortexing in 100 μl virus solubilization buffer (VSB) containing 0.5% Triton X-100, 0.8 M NaCl, 0.5 mM phenylmethylsulfonyl fluoride, 20% glycerol, and 0.05 M Tris, pH 7.8. Ten μL of each sample were added to 75 μL RT reaction mixture (0.06 M Tris, pH 7.8, 0.012 M MgCl2, 0.006 M dithiothreitol, 0.006 mg/ml poly (rA)n, oligo (dT)12-18, 96 μg/ml dATP, and 1 μM of 0.08 mCi/ml ^3H-thymidine triphosphate (Moravek Biochemicals, Brea, Calif.) and incubated at 37° C. for 2 hours. The reaction was stopped by the addition of 100 μL 10% trichloroacetic acid containing 0.05% sodium pyrophosphate. The acid insoluble product was harvested onto filter paper using a Packard Harvester (Meriden, Conn.), and the RT activity was read on a Packard Direct Beta Counter (Meriden, Conn.). The RT results were expressed in counts per minute (CPM) per milliliter.
A single mutation at residue 184 (M184V) in the catalytic domain of HIV-1 RT bring about a high-level of resistance to 3TC, causing the 50% inhibitory concentration of 3TC to be increased at least 1,000-fold (Schinazi, R. F.; Lloyd, Jr. R. M.; Nguyen, M. -H.; Cannon, D. L.; McMillan, A.; Ilksoy, N.; Chu, C. K.; Liotta, D. C.; Bazni, H. Z.; Mellors, J. W. Characterizatin of human immunodeficiency viruses resistant to oxthiolane-cytosine nucleosides. Antimicrob Agents Chemother. 1993, 37, 875-881; Tisdale, M.; Kemp, S. D.; Parry, N. R.; Larder, B. A. Rapid in vitro selection of human immunodeficiency virus type 1 resistant to 3′-thiacytidine inhibitors due to a mutation in the YMDD region of reverse transcnptase. Proc. Natl. Acad. Sci. USA 1993, 90, 5653-5656), contributing to the failure of anti-AIDS combination therapy. […] K. Synthesis and anti-HIV and anti-HBV activities of 2′-fluoro-2′,3′-unsaturated L-nucleosides.

[9] = Human immunodeficiency virus 1, PBMC

SMILES	IC50 [1]	IC50 [2]	IC50 [3]	IC50 [4]	IC50 at 5 days [5]	IC50 at 3 days [6]	IC50 ([3]; human, 4 days)	EC90 [7, 9]	EC90 [8, 9]	EC90 ([7]; human PBM cells)	FI, fold increase (EC90 HIV-1M184V/EC90 HIV-1xxBRU) ([8]; human PBM cells)	EC90 ([8]; human PBM cells)
Nc1nc(=O)n([C@H]2S[C@@H](CO)C=C2F)cc1F [Compound L-18, (+)-1-[(1S,4R)-2,3-dideoxy-2,3-didehydro-2-fluoro-4-thio-β-L-ribofuranosyl]-5-fluoro-cytosine]	> 100 µM	> 100 µM	> 100 µM	> 100 µM								
Nc1nc(=O)n([C@@H]2S[C@H](CO)C=C2F)cc1F [Compound D-18, (−)-1-[(1S,4R)-2,3-dideoxy-2,3-didehydro-2-fluoro-4-thio-β-D-ribofuranosyl]-5-fluorocytosine]	> 100 µM	> 100 µM	> 100 µM	> 100 µM								
Nc1ccn([C@@H]2C=C(F)[C@H](CO)O2)c(=O)n1 [Compound 10, 1-(2,3-Dideoxy-3-fluoro-β-L-glycero-pent-2-eno-furanosyl)cytosine]					> 100 µM	> 100 µM						
Nc1ccn([C@@H]2C=C(F)[C@H](CO)O2)c(=O)n1 [Compound 23, 1-(2,3-Didcoxy-3-fluoro-β-L-glycero-pent-2-eno-furanosyl)cytosine]	87 µM											
Cc1cn([C@H]2C[C@H](N=[N+]=[N-])[C@@H](CO)O2)c(=O)[nH]c1=O [AZT, 3′-azido-3′-deoxythymidine, reference compound]					> 100 µM	> 100 µM	29 µM	0.01 µM	0.003 µM			
Nc1ccn([C@H]2S[C@@H](CO)C=C2F)c(=O)n1 [Compound L-17, (+)-1-[(1S,4R)-2,3-dideoxy-2,3-didehydro-2-fluoro-4-thio-β-L-ribofuranosyl]-cytosine]	> 100 µM	> 100 µM	> 100 µM	> 100 µM						1.4 µM	>100	> 100 µM
Nc1ccn([C@@H]2S[C@H](CO)C=C2F)c(=O)n1 [Compound D-17, (−)-1-[(1S,4R)-2,3-dideoxy-2,3-didehydro-2-fluoro4-thio-β-D-ribofuranosyl]-cytosine]	> 100 µM	> 100 µM	> 100 µM	> 100 µM						5 µM	25	~125 µM
Nc1ccn([C@@H]2CS[C@H](CO)O2)c(=O)n1 [Compound 3TC, (−)-β-2′,3′-dideoxy-3′-thiacytidine, reference compound]					> 100 µM	> 100 µM		0.08 µM	535 µM		6,688	
